# Test results reported in patent EP0035270A2, “Heterocyclic compounds, compositions thereof, their preparation and use” (THE WELLCOME FOUNDATION LIMITED, priority 1980, dated 1981).
# What was measured:
# LD50's in mice = details: mouse, in vivo, ip; i.p. administration to mice
# Method: The LD50's of compounds of formula were determined by conventional techniques by i.p. administration to mice.
# [1] = Effect of 1-n-decyl pyrazolidin-3-one on rat bodyweight and food consumption; type: in vivo, Male Sprague-Dawley rats
# Method: Male Sprague-Dawley rats were acclimatized as described in Example 6. The Rats (approx. 300 grams) were housed individually to present measurement of food consumption as well as bodyweight. Animals were treated once daily by oral […] guage either with saline or with 1-n-decyl pyrazolidin-3-one (25 mg/kg) in saline vehicle. Measurement of bodyweight and food consumption was […] during the recovery days, when treatment with drug has stopped.
# [2] = Effect of pyrazolidinones on bodyweight of rats (single oral dose); type: in vivo; details: 0.22 m moles/kilogram bodyweight, two days after administration
# Method: The compound of formula (I) prepared by the methods described in Examples 1 and 2 were administered orally to rats at a dose corresponding to 0.22 m moles/kilogram bodyweight. Two days after administration the weight of the treated rats was compared with control and the difference expressed as a percentage of the weight of the control animals.
# [3] = Effect of varying daily oral doses of 1-n-decyl pyrazolidin-3-one on rat bodyweight; type: in vivo, Male Sprague-Dawley rats; details: for Percent Change from Initial Bodyweight (Mean ± S.E.M.) Day 5: Day 5, rats approx. 575 grams; for Percent Change from Initial Bodyweight (Mean ± S.E.M.) Day 10: Day 10, rats approx. 575 grams
# Method: Male Sprague-Dawley rats were acclimatized to laboratory conditions for approximately four weeks prior to the experiment being carried out. The rats were maintained on a 12 hr/12 hr light dark cycle and had continuous access to food and water. Rats weighing approx. 575 grams were housed 4 to a cage and each rat treated daily with an oral injection of either saline vechicle or one of three doses of 1-n-decylpyrazolidinone dissolved in saline vehicle. The saline vehicle was prepared fresh each day.
smiles,measurement,setting,value
"CCCCCCCCCCCCCCN1CCC(=O)N1.Cl [CH3(CH2)13-, 1-(n-tetradecyl)-3-pyrazolidone hydrochloride]",LD50,LD50's in mice,350 mg/kg
"CCCCCCCCCCN1CCC(=O)N1.Cl [n-decyl, 1-(n-decyl)-3-pyrazolidone hydrochloride]",Percent change in amount of food consumed (Mean ± S.E.M.),"[1]; 25 mg/kg p.o. once daily, Treatment Day 2",-1 ±6%
same,Percent change in amount of food consumed (Mean ± S.E.M.),"[1]; after 25 mg/kg p.o. once daily, Recovery Day 2 (treatment stopped)",-8 ±7%
same,Percent change in amount of food consumed (Mean ± S.E.M.),"[1]; after 25 mg/kg p.o. once daily, Recovery Day 3 (treatment stopped)",+13 ±8%
same,% weight deviation from control,[2],-10.9%
same,LD50,LD50's in mice,500 mg/kg
same,Percent Change from Initial Bodyweight (Mean ± S.E.M.) Day 5,[3]; 10 mg/kg p.o. daily,-2.7 ± 0.3%
same,Percent Change from Initial Bodyweight (Mean ± S.E.M.) Day 10,[3]; 10 mg/kg p.o. daily,-1.1 ± 0.4%
same,Percent Change from Initial Bodyweight (Mean ± S.E.M.) Day 5,[3]; 15 mg/kg p.o. daily,-3.3 ± 1.0%
same,Percent Change from Initial Bodyweight (Mean ± S.E.M.) Day 10,[3]; 15 mg/kg p.o. daily,-9.6 ± 1.7%
same,Percent Change from Initial Bodyweight (Mean ± S.E.M.) Day 5,[3]; 20 mg/kg p.o. daily,-3.8 ± 0.6%
same,Percent Change from Initial Bodyweight (Mean ± S.E.M.) Day 10,[3]; 20 mg/kg p.o. daily,-11.1 ± 1.8%
"CCCCCCCCCN1CCC(=O)N1.Cl [n-nonyl, 1-(n-nonyl)-3-pyrazolidone hydrochloride]",LD50,LD50's in mice,210 mg/kg
"CCCCCCCCN1CCC(=O)N1.Cl [n-octyl, 1-(n-octyl)-3-pyrazolidone hydrochloride]",LD50,LD50's in mice,250 mg/kg
"CCCCCCCCCCCN1CCC(=O)N1.Cl [n-undecyl, 1-(n-undecyl)-3-pyrazolidone hydrochloride]",LD50,LD50's in mice,350 mg/kg
